Reference: ChEMBL document CHEMBL1129131, “Identification and structure-activity relationship studies of osthol, a cytotoxic principle from Cnidium monnieri” (Bioorg Med Chem Lett, 1996)
Values after ≈ are worked out from the molar mass of the structure shown.

Key:
Assay type in all cases: functional, cell-based
V79 = assay: Cytotoxicity against V-79 cells; settings: Cricetulus griseus
KB = assay: Compound was tested for its cytotoxicity against KB cells; settings: Homo sapiens
P388 = assay: Compound was tested for its cytotoxicity against P-388 cells; settings: Mus musculus
MM46 = assay: Compound was tested for its cytotoxicity against MM46 cells; settings: Mus musculus

## COc1ccc2c(c1CCC(C)C)OC(=O)CC2
V79
  IC50: > 100 µM

## COc1ccc2ccc(=O)oc2c1CCC(C)(C)O
V79
  IC50: > 100 µM

## CCCOc1ccc2ccc(=O)oc2c1CCC(C)C
V79
  IC50: 5.6 µM

## CC(C)CCc1c(O)ccc2c1OC(=O)CC2
V79
  IC50: > 100 µM

## CCCCOc1ccc2ccc(=O)oc2c1CCC(C)C
V79
  IC50: 16 µM

## COc1ccc2ccc(=O)oc2c1CC(O)C(C)(C)O (configuration not stated)
V79
  IC50: > 100 µM

## CC(C)CCc1c(O)ccc2ccc(=O)oc12
V79
  IC50: 40 µM

## COc1ccc2ccc(=O)oc2c1CC(Br)C(C)(C)Br (configuration not stated)
V79
  IC50: 60 µM

## CCCC(=O)c1ccc2ccc(=O)oc2c1CCC(C)C
V79
  IC50: 58 µM

## CC(C)CCc1cccc2ccc(=O)oc12
V79
  IC50: 60 µM

## CC(=O)c1ccc2ccc(=O)oc2c1CCC(C)C
V79
  IC50: 60 µM

## COc1ccc2ccc(=O)oc2c1CC1OC1(C)C (configuration not stated)
V79
  IC50: > 100 µM

## CCCCCCCOc1ccc2ccc(=O)oc2c1CCC(C)C
V79
  IC50: 17 µM

## COc1ccc2ccc(=O)oc2c1CCC(C)C
V79
  IC50: 58 µM

## CCOc1ccc2ccc(=O)oc2c1CCC(C)C
V79
  IC50: 5.8 µM

## O=c1ccc2ccccc2o1 [COUMARIN]
V79
  IC50: > 100 µM

## COc1ccc2ccc(=O)oc2c1 [HERNIARIN]
V79
  IC50: > 100 µM

## COc1ccc2ccc(=O)oc2c1CC=C(C)C [OSTHOLE]
KB
  IC50: 12 µg/mL (≈ 49.1 µM)
P388
  IC50: 3.1 µg/mL (≈ 12.7 µM)
V79
  IC50: 57 µM
MM46
  IC50: 8.6 µg/mL (≈ 35.2 µM)

## O=c1ccc2ccc(O)cc2o1 [UMBELLIFERONE]
V79
  IC50: 58 µM
